Measurements taken from paper PMC4842925, “Aristolochic acid, a plant extract used in the treatment of pain and linked to Balkan endemic nephropathy, is a regulator of K2P channels” (British Journal of Pharmacology, 2016).
Changes are numbered by the printed parent chain.

How the values were obtained:
Test in all cases: whole-cell patch clamp, tsA201 cells
Format in all cases: cell-based
[1] = molecular target: T1, hTASK-2 (K2P5.1) (Homo sapiens, UniProt O95279, T108P)
T1 construct: gene KCNK5; full-length channel in pcDNA3.1, transiently expressed in tsA201 cells; functional dimer
T1 sequence (O95279 1-499 T108P): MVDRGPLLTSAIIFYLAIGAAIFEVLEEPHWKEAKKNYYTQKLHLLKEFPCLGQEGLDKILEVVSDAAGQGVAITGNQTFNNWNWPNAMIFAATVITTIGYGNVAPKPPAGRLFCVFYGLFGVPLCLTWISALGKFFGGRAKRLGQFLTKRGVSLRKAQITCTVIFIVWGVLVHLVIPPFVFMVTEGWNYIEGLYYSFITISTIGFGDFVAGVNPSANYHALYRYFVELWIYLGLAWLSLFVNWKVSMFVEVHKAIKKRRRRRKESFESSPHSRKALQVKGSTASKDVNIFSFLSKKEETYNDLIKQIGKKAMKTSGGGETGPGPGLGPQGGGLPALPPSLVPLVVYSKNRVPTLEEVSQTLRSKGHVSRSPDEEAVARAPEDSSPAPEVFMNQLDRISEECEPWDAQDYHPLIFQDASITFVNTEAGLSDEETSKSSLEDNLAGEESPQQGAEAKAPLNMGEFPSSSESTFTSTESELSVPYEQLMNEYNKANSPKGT

[2] = molecular target: T2, hTASK-2 (K2P5.1) (Homo sapiens, UniProt O95279); settings: activation; pH 7.4; 2.5 mM external K; room temperature
T2 construct: gene KCNK5; full-length channel in pcDNA3.1, transiently expressed in tsA201 cells; functional dimer
T2 sequence (O95279 1-499): T1 sequence (O95279 1-499 T108P) with P108T

[3] = molecular target: T3, hTRESK (K2P18.1) (Homo sapiens, UniProt Q7Z418, F145A/F352A)
T3 construct: gene KCNK18; full-length channel in pcDNA3.1, transiently expressed in tsA201 cells; homodimer
T3 sequence (Q7Z418 1-384 F145A/F352A): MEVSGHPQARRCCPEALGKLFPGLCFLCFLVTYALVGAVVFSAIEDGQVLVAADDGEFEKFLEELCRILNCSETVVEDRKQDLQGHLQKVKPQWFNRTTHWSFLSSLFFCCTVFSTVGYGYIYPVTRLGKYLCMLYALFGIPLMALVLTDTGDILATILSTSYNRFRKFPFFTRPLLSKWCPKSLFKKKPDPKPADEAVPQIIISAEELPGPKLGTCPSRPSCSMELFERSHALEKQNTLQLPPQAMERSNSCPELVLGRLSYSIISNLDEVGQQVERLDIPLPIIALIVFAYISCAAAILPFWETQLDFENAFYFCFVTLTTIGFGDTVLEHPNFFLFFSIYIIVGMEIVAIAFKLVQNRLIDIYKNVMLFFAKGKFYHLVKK

[4] = molecular target: T4, hTRAAK (K2P4.1) (Homo sapiens, UniProt Q9NYG8); settings: authors: little effect; difference current between -40 and -80 mV; pH 7.4; 2.5 mM external K; room temperature
T4 construct: gene KCNK4; isoform 2 in pcDNA3.1, transiently expressed in tsA201 cells; homodimer
T4 sequence (Q9NYG8 1-419 isoform Q9NYG8-2): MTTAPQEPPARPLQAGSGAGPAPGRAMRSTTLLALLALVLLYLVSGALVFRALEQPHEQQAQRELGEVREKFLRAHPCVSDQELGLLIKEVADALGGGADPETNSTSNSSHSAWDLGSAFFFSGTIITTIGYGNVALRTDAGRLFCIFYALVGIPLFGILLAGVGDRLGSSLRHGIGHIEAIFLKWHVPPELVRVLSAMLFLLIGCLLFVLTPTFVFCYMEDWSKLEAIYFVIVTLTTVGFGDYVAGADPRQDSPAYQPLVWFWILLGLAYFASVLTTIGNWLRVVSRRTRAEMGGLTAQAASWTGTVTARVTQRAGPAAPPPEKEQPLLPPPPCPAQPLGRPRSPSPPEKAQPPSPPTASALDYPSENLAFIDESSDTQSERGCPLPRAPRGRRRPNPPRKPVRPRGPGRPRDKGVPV

[5] = molecular target: T5, hTRESK (K2P18.1) (Homo sapiens, UniProt Q7Z418, S252E/S264E)
T5 construct: gene KCNK18; full-length channel in pcDNA3.1, transiently expressed in tsA201 cells; homodimer
T5 sequence (Q7Z418 1-384 S252E/S264E): T3 sequence (Q7Z418 1-384 F145A/F352A) with A145F, S252E, S264E, A352F

[6] = molecular target: T6, hTRESK (K2P18.1) (Homo sapiens, UniProt Q7Z418)
T6 construct: gene KCNK18; full-length channel in pcDNA3.1, transiently expressed in tsA201 cells; homodimer
T6 sequence (Q7Z418 1-384): T3 sequence (Q7Z418 1-384 F145A/F352A) with A145F, A352F

[7] = molecular target: T7, hTRESK (K2P18.1) (Homo sapiens, UniProt Q7Z418, S252A/S264A)
T7 construct: gene KCNK18; full-length channel in pcDNA3.1, transiently expressed in tsA201 cells; homodimer
T7 sequence (Q7Z418 1-384 S252A/S264A): T3 sequence (Q7Z418 1-384 F145A/F352A) with A145F, S252A, S264A, A352F

[8] = molecular target: T2, hTASK-2 (K2P5.1); settings: activation; no effect at 100 μM; pH 7.4; 2.5 mM external K; room temperature
[9] = molecular target: T8, hTREK-2 (K2P10.1) (Homo sapiens, UniProt P57789); settings: activation; difference current between -40 and -80 mV; pH 7.4; 2.5 mM external K; room temperature
T8 construct: gene KCNK10; full-length channel in pcDNA3.1, transiently expressed in tsA201 cells; homodimer
T8 sequence (P57789 1-538): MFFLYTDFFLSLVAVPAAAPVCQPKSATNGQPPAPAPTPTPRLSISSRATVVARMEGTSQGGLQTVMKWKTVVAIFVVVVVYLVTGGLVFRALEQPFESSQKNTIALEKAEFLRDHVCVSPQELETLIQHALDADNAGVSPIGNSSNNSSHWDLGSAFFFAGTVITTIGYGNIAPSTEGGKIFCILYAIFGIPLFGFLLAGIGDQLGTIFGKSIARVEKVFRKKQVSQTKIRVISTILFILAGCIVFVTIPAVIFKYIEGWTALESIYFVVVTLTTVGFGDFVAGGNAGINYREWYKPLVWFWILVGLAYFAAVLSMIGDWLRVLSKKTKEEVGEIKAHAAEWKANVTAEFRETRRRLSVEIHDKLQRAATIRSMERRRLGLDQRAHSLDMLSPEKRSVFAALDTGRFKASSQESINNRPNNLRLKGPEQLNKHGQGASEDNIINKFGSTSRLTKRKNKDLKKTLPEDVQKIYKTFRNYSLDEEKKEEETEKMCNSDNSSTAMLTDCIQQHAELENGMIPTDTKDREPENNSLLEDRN

SMILES | inhibition at 100 µM [1] | % enhancement at 100 μM [2] | inhibition at 100 µM [3] | % enhancement at 100 μM [4] | inhibition at 100 µM [5] | IC50 [6] | inhibition at 100 µM [7] | % enhancement at 300 μM [8] | % enhancement at 100 μM [9]
O=C(O)c1ccccc1Nc1cccc(C(F)(F)F)c1 [Flufenamic acid] | 15 ± 14% | 80 ± 31% |  |  |  |  |  |  | 
COc1cccc2c1cc([N+](=O)[O-])c1c(C(=O)O)cc3c(c12)OCO3 [Aristolochic acid I] |  |  | 0% | 8 ± 5% | 73 ± 5% | 13 ± 2 µM | 80 ± 2% | 21 ± 13% | 44 ± 11%
